Results reported in patent publication US4593093A, “Acyl derivatives” (priority 1980, dated 1986).
Counter-ions that a name gives are not always drawn. Like-named read-outs stand apart in the source and are kept apart here.

Columns and labels:
[1] = test system: Streptococcus pneumoniae; experiment: Activity in vitro: minimum inhibitory concentration; type: cell-based
[2] = test system: Pseudomonas aeruginosa; experiment: as above; type: cell-based
[3] = test system: Escherichia coli; experiment: as above; type: cell-based
[4] = test system: Streptococcus pyogenes; experiment: Activity in vivo: survival of intraperitoneally infected mice; conditions: sc, 96 h; mice infected i.p. with Streptococcus pyogenes; s.c. twice, 1 h and 3 h after infection; survival on 4th day; read-out: CD50 (dosage at which 50% of the animals survive)
Description: (§1) Groups of 5 mice are infected intraperitoneally with an aqueous suspension of various pathogens. The test substance in physiological sodium chloride solution is administered subcutaneously twice, i.e. 1 hour and 3 hours after the infection. The number of surviving animals is determined on the 4th day. Various dosages are administered and that dosage at which 50% of the experimental animals survive (CD50, mg/kg) is determined by interpolation.

[5] = test system: Streptococcus faecalis; experiment: Activity in vitro: minimum inhibitory concentration; type: cell-based; conditions: Enterococcus faecalis
[6] = test system: Proteus morganii; experiment: as above; type: cell-based; conditions: Morganella morganii
[7] = test system: Staphylococcus aureus; experiment: as above; type: cell-based
[8] = test system: Citrobacter freundii; experiment: as above; type: cell-based
[9] = test system: Proteus inconstans; experiment: as above; type: cell-based; conditions: Providencia alcalifaciens
[10] = test system: Streptococcus pyogenes; experiment: as above; type: cell-based
[11] = test system: Proteus mirabilis; experiment: as above; type: cell-based
[12] = test system: Enterobacter cloacae; experiment: as above; type: cell-based
[13] = test system: Klebsiella pseumoniae; experiment: as above; type: cell-based
[14] = test system: Staphylococcus epidermis; experiment: as above; type: cell-based
[15] = test system: Serratia marcescens; experiment: as above; type: cell-based
[16] = test system: Streptococcus viridans; experiment: as above; type: cell-based
[17] = test system: Enterobacter aerogenes; experiment: as above; type: cell-based; conditions: Klebsiella aerogenes
[18] = test system: Haemophilus influenzae; experiment: Activity in vivo: survival of intraperitoneally infected mice; conditions: sc, 96 h; mice infected i.p. with Haemophilus influenzae; s.c. twice, 1 h and 3 h after infection; survival on 4th day; read-out: CD50 (dosage at which 50% of the animals survive)
Description: as §1

[19] = test system: Enterobacter cloacae; experiment: as above; conditions: sc, 96 h; mice infected i.p. with Enterobacter cloacae; s.c. twice, 1 h and 3 h after infection; survival on 4th day; read-out: CD50 (dosage at which 50% of the animals survive)
Description: as §1

[20] = test system: Serratia marcescens; experiment: as above; conditions: sc, 96 h, 1 h and 3 h after infection, survival on 4th day, read-out: CD50 (dosage at which 50% of the animals survive)
Description: as §1

[21] = test system: Escherichia coli; experiment: as above; conditions: sc, 96 h; mice infected i.p. with Escherichia coli; s.c. twice, 1 h and 3 h after infection; survival on 4th day; read-out: CD50 (dosage at which 50% of the animals survive)
Description: as §1

[22] = test system: Pseudomonas aeruginosa; experiment: as above; conditions: sc, 96 h; mice infected i.p. with Pseudomonas aeruginosa; s.c. three times, 1 h, 3 h and 5 h after infection; survival on 4th day; read-out: CD50 (dosage at which 50% of the animals survive)
Description: as §1
*Administered subcutaneously three times: 1 hour, 3 hours and 5 hours

[23] = test system: Proteus rettgeri; experiment: Activity in vitro: minimum inhibitory concentration; type: cell-based; conditions: Providencia rettgeri
[24] = Toxicity, LD50; conditions: in vivo
[25] = Pseudomonas aeruginosa strain 1
[26] = Pseudomonas aeruginosa strain 3
[27] = Streptococcus faecalis strain 1
[28] = Streptococcus faecalis strain 2
[29] = Streptococcus pyogenes strain 1, read-out: Minimum inhibitory concentration
[30] = Enterobacter aerogenes strain 1
[31] = Enterobacter aerogenes strain 2
[32] = mice infected i.p. with Serratia marcescens strain 1, s.c. twice
[33] = Streptococcus pyogenes strain 2, read-out: Minimum inhibitory concentration

CC(=O)OCC1=C(C(=O)[O-])N2C(=O)[C@@H](NC(=O)/C(=N\O)c3c[se]c(N)n3)[C@H]2SC1.[Na+] [Product L, (6R, 7R)-3-(acetoxymethyl)-7-[2-(2-amino-4-selenazolyl)-2-[(Z)-hydroxyimino]-acetamido]-8-oxo-5-thia-1-azabicyclo[4.2.0]oct-2-ene-2-carboxylic acid sodium salt]
MIC [1]: 0.1 µg/mL
MIC [2, 25]: 50 µg/mL
MIC [2, 26]: 12.5 µg/mL
MIC ([3]; Escherichia coli strain 1): ≤ 0.025 µg/mL
MIC ([3]; Escherichia coli strain 2): ≤ 0.025 µg/mL
MIC ([3]; Escherichia coli strain 3): 1.6 µg/mL
MIC ([3]; Escherichia coli strain 4): 6.3 µg/mL
MIC ([3]; Escherichia coli strain 5): 0.1 µg/mL
ED50 [4]: 0.08 mg/kg
MIC [5, 27]: 25 µg/mL
MIC [5, 28]: 25 µg/mL
MIC [6]: 0.4 µg/mL
MIC ([7]; Staphylococcus aureus strain 1): 0.2 µg/mL
MIC ([7]; Staphylococcus aureus strain 2): 0.4 µg/mL
MIC ([7]; Staphylococcus aureus strain 3): 0.4 µg/mL
MIC ([7]; Staphylococcus aureus strain 4): 0.4 µg/mL
MIC ([8]; Citrobacter freundii strain 1): 3.1 µg/mL
MIC ([8]; Citrobacter freundii strain 2): 0.025 µg/mL
MIC [9]: ≤ 0.025 µg/mL
MIC [10, 29]: 0.05 µg/mL
MIC ([10]; read-out: Minimum inhibitory concentration, Streptococcus pyogenes strain 2): ≥ 0.025 µg/mL
MIC ([11]; Proteus mirabilis strain 3): ≤ 0.025 µg/mL
MIC ([11]; Proteus mirabilis strain 4): 0.05 µg/mL
MIC ([11]; Proteus mirabilis strain 5): 0.05 µg/mL
MIC ([12]; Enterobacter cloacae strain 1): 200 µg/mL
MIC ([12]; Enterobacter cloacae strain 2): 6.3 µg/mL
MIC ([12]; Enterobacter cloacae strain 3): 25 µg/mL
MIC ([13]; Klebsiella pseumoniae strain 1): ≤ 0.025 µg/mL
MIC ([13]; Klebsiella pseumoniae strain 2): ≤ 0.025 µg/mL
MIC ([13]; Klebsiella pseumoniae strain 3): ≤ 0.025 µg/mL
MIC [14]: 0.4 µg/mL
MIC ([15]; Serratia marcescens strain 1): 0.8 µg/mL
MIC ([15]; Serratia marcescens strain 2): 1.6 µg/mL
MIC ([15]; Serratia marcescens strain 3): 0.1 µg/mL
MIC [16]: 0.8 µg/mL
MIC [17, 30]: ≤ 0.025 µg/mL
MIC [17, 31]: 0.4 µg/mL

CO/N=C(\C(=O)N[C@@H]1C(=O)N2C(C(=O)O)=C(C)CS[C@H]12)c1c[se]c(N)n1 [Product F, (6R, 7R)-7-[2-(2-amino-4-selenazolyl)-2-[(Z)-methoxyimino]-acetamido]-3-methyl-3-oxo-5-thia-1-azabicyclo[4.2.0]oct-2-ene-2-carboxylic acid sodium salt]
MIC [1]: 12.5 µg/mL
MIC [2, 25]: > 200 µg/mL
MIC ([2]; Pseudomonas aeruginosa strain 2): > 200 µg/mL
MIC [2, 26]: 200 µg/mL
MIC ([3]; Escherichia coli strain 1): 0.8 µg/mL
MIC ([3]; Escherichia coli strain 2): 0.05 µg/mL
MIC ([3]; Escherichia coli strain 3): 12.5 µg/mL
MIC ([3]; Escherichia coli strain 4): 100 µg/mL
MIC ([3]; Escherichia coli strain 5): 3.1 µg/mL
ED50 [18]: 4 mg/kg
ED50 [19]: > 25 mg/kg
ED50 [20, 32]: 0.59 mg/kg
ED50 ([20]; mice infected i.p. with Serratia marcescens strain 2, s.c. twice): 5.1 mg/kg
ED50 [4]: < 0.05 mg/kg
ED50 [21]: 0.06 mg/kg
MIC [5, 27]: > 200 µg/mL
MIC [5, 28]: > 200 µg/mL
MIC [6]: 50 µg/mL
ED50 [22]: > 200 mg/kg
MIC ([7]; Staphylococcus aureus strain 1): 50 µg/mL
MIC ([7]; Staphylococcus aureus strain 2): 100 µg/mL
MIC ([7]; Staphylococcus aureus strain 3): 50 µg/mL
MIC ([7]; Staphylococcus aureus strain 4): 100 µg/mL
MIC ([8]; Citrobacter freundii strain 1): 200 µg/mL
MIC ([8]; Citrobacter freundii strain 2): 1.6 µg/mL
MIC [9]: ≤ 0.025 µg/mL
MIC [10, 29]: 3.1 µg/mL
MIC [10, 33]: 0.05 µg/mL
MIC ([11]; Proteus mirabilis strain 3): 0.1 µg/mL
MIC ([11]; Proteus mirabilis strain 4): 0.8 µg/mL
MIC ([11]; Proteus mirabilis strain 5): 0.4 µg/mL
MIC ([12]; Enterobacter cloacae strain 1): > 200 µg/mL
MIC ([12]; Enterobacter cloacae strain 2): 25 µg/mL
MIC ([12]; Enterobacter cloacae strain 3): > 200 µg/mL
MIC [23]: 0.1 µg/mL
MIC ([13]; Klebsiella pseumoniae strain 1): 0.2 µg/mL
MIC ([13]; Klebsiella pseumoniae strain 2): 0.05 µg/mL
MIC ([13]; Klebsiella pseumoniae strain 3): 0.05 µg/mL
MIC [14]: 100 µg/mL
LD50 ([24]; po): > 5000 mg/kg
LD50 ([24]; sc): > 4000 mg/kg
MIC ([15]; Serratia marcescens strain 1): 3.1 µg/mL
MIC ([15]; Serratia marcescens strain 2): 6.3 µg/mL
MIC ([15]; Serratia marcescens strain 3): 0.4 µg/mL
MIC [16]: 12.5 µg/mL
MIC [17, 30]: 0.2 µg/mL
MIC [17, 31]: 0.2 µg/mL

CC(=O)OCC1=C(C(=O)O)N2C(=O)[C@@H](NC(=O)/C(=N\OC(C)(C)C(=O)O)c3c[se]c(N)n3)[C@H]2SC1 [Product I, disodium salt]
MIC [1]: 0.2 µg/mL
MIC [2, 26]: 1.6 µg/mL
MIC ([3]; Escherichia coli strain 1): 1.6 µg/mL
MIC ([3]; Escherichia coli strain 2): 0.2 µg/mL
MIC ([3]; Escherichia coli strain 3): 0.8 µg/mL
MIC ([3]; Escherichia coli strain 5): 0.4 µg/mL
ED50 [19]: > 50 mg/kg
ED50 [20, 32]: 1.8 mg/kg
ED50 [4]: 2.7 mg/kg
ED50 [21]: 0.067 mg/kg
MIC [5, 27]: > 100 µg/mL
MIC [5, 28]: > 100 µg/mL
MIC [6]: 0.8 µg/mL
ED50 [22]: 23 mg/kg
MIC ([7]; Staphylococcus aureus strain 1): 50 µg/mL
MIC ([7]; Staphylococcus aureus strain 2): 100 µg/mL
MIC ([7]; Staphylococcus aureus strain 3): 50 µg/mL
MIC ([7]; Staphylococcus aureus strain 4): 100 µg/mL
MIC ([8]; Citrobacter freundii strain 1): 100 µg/mL
MIC ([8]; Citrobacter freundii strain 2): 1.6 µg/mL
MIC [9]: 0.012 µg/mL
MIC [10, 29]: 0.2 µg/mL
MIC [10, 33]: 0.05 µg/mL
MIC ([11]; Proteus mirabilis strain 3): 0.1 µg/mL
MIC ([11]; Proteus mirabilis strain 4): 0.1 µg/mL
MIC ([11]; Proteus mirabilis strain 5): 0.2 µg/mL
MIC ([12]; Enterobacter cloacae strain 1): > 100 µg/mL
MIC ([12]; Enterobacter cloacae strain 2): 6.3 µg/mL
MIC ([12]; Enterobacter cloacae strain 3): > 100 µg/mL
MIC [23]: 0.1 µg/mL
MIC ([13]; Klebsiella pseumoniae strain 1): 0.8 µg/mL
MIC ([13]; Klebsiella pseumoniae strain 2): 0.4 µg/mL
MIC ([13]; Klebsiella pseumoniae strain 3): 0.8 µg/mL
MIC [14]: 50 µg/mL
MIC ([15]; Serratia marcescens strain 1): 1.6 µg/mL
MIC ([15]; Serratia marcescens strain 2): 3.1 µg/mL
MIC ([15]; Serratia marcescens strain 3): 0.4 µg/mL
MIC [16]: 6.3 µg/mL
MIC [17, 30]: 0.4 µg/mL
MIC [17, 31]: 0.2 µg/mL
